Experimental data published in PubChem BioAssay AID1963425 (Molecular Pharmacology Branch, DTP, NCI, 2024).
pIC50: −log10 of the molar value.

Tested on: 323965-272-R-J2-PDC complex spheroid growth, % test/control
Assay: Anticancer human tumor 323965-272-R-J2-PDC patient-derived pancreatic carcinoma cell line growth inhibition [Asc]
Conditions: for pIC50: curve of first compound; for viability, T/C: stronger effect = lower value
In short: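 Concentration series start at each agent's clinical Cmax, or at 10 microM when none is established, and drop in half-log steps; agents are applied alone or together to complex spheroids built with HUVEC and hMSC.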
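Further: compound exposure lasted 7 days starting three days after spheroid seeding.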
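Wherever viability, T/C is given: 100% = DMSO vehicle control wells with viability set relative to vehicle.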

Cc1nc(N2CCC3(CC2)COC(C)C3N)c(CO)nc1Sc1ccnc(N)c1Cl (centres undefined) + CNC(C)C(=O)NC1CN(S(=O)(=O)c2cccc(S(=O)(=O)N3CCC4CCC(C(=O)NC(c5ccccc5)c5ccccc5)N4C(=O)C(NC(=O)C(C)NC)C3)c2)CCC2CCC(C(=O)NC(c3ccccc3)c3ccccc3)N2C1=O
pIC50 (second compound 0.00316 µM): 6.00
pIC50 (second compound 0.01 µM): < 5.52
pIC50 (second compound 0.0316 µM): < 5.52
pIC50 (second compound 0.1 µM): 5.83
pIC50 (second compound 0.316 µM): 5.82
pIC50 (second compound 1 µM): 6.01
viability, T/C (second compound 0.00316 µM, first compound 0.00949 µM): 109%
viability, T/C (second compound 0.00316 µM, first compound 0.03 µM): 84.6%
viability, T/C (second compound 0.00316 µM, first compound 0.0949 µM): 71.8%
viability, T/C (second compound 0.00316 µM, first compound 0.3 µM): 55.7%
viability, T/C (second compound 0.00316 µM, first compound 0.949 µM): 52.4%
viability, T/C (second compound 0.00316 µM, first compound 3 µM): 43.9%
viability, T/C (second compound 0.01 µM, first compound 0.00949 µM): 99.4%
viability, T/C (second compound 0.01 µM, first compound 0.03 µM): 94.3%
viability, T/C (second compound 0.01 µM, first compound 0.0949 µM): 66%
viability, T/C (second compound 0.01 µM, first compound 0.3 µM): 62%
viability, T/C (second compound 0.01 µM, first compound 0.949 µM): 52.6%
viability, T/C (second compound 0.01 µM, first compound 3 µM): 47.7%
viability, T/C (second compound 0.0316 µM, first compound 0.00949 µM): 110%
viability, T/C (second compound 0.0316 µM, first compound 0.03 µM): 97.4%
viability, T/C (second compound 0.0316 µM, first compound 0.0949 µM): 80%
viability, T/C (second compound 0.0316 µM, first compound 0.3 µM): 58.1%
viability, T/C (second compound 0.0316 µM, first compound 0.949 µM): 57.9%
viability, T/C (second compound 0.0316 µM, first compound 3 µM): 49%
viability, T/C (second compound 0.1 µM, first compound 0.00949 µM): 93.9%
viability, T/C (second compound 0.1 µM, first compound 0.03 µM): 96.6%
viability, T/C (second compound 0.1 µM, first compound 0.0949 µM): 80.9%
viability, T/C (second compound 0.1 µM, first compound 0.3 µM): 65.6%
viability, T/C (second compound 0.1 µM, first compound 0.949 µM): 51.2%
viability, T/C (second compound 0.1 µM, first compound 3 µM): 47.4%
viability, T/C (second compound 0.316 µM, first compound 0.00949 µM): 97.7%
viability, T/C (second compound 0.316 µM, first compound 0.03 µM): 85%
viability, T/C (second compound 0.316 µM, first compound 0.0949 µM): 86.7%
viability, T/C (second compound 0.316 µM, first compound 0.3 µM): 60.5%
viability, T/C (second compound 0.316 µM, first compound 0.949 µM): 58.2%
viability, T/C (second compound 0.316 µM, first compound 3 µM): 42.3%
viability, T/C (second compound 1 µM, first compound 0.00949 µM): 84.8%
viability, T/C (second compound 1 µM, first compound 0.03 µM): 80.4%
viability, T/C (second compound 1 µM, first compound 0.0949 µM): 71.9%
viability, T/C (second compound 1 µM, first compound 0.3 µM): 62%
viability, T/C (second compound 1 µM, first compound 0.949 µM): 50.1%
viability, T/C (second compound 1 µM, first compound 3 µM): 39.8%

O=C(c1cc(Cc2n[nH]c(=O)c3ccccc23)ccc1F)N1CCN(C(=O)C2CC2)CC1 + Cc1c(S(C)(=O)=O)c(-c2cc(F)cc(N3CCN(c4ccc(NS(=O)(=O)c5ccc(NC(CCN6CCC(C(=O)OCCCP(=O)(O)O)CC6)CSc6ccccc6)c(S(=O)(=O)C(F)(F)F)c5)cc4)CC3)c2)c(-c2ccc(Cl)cc2)n1C(C)C
pIC50 (second compound 0.0316 µM): < 5.00
pIC50 (second compound 0.1 µM): < 5.00
pIC50 (second compound 0.316 µM): < 5.00
pIC50 (second compound 1 µM): < 5.00
pIC50 (second compound 3.16 µM): < 5.00
pIC50 (second compound 10 µM): < 5.00
viability, T/C (second compound 0.0316 µM, first compound 0.0316 µM): 87.5%
viability, T/C (second compound 0.0316 µM, first compound 0.1 µM): 92.7%
viability, T/C (second compound 0.0316 µM, first compound 0.316 µM): 95.7%
viability, T/C (second compound 0.0316 µM, first compound 1 µM): 98.9%
viability, T/C (second compound 0.0316 µM, first compound 3.16 µM): 98.3%
viability, T/C (second compound 0.0316 µM, first compound 10 µM): 89%
viability, T/C (second compound 0.1 µM, first compound 0.0316 µM): 103%
viability, T/C (second compound 0.1 µM, first compound 0.1 µM): 93%
viability, T/C (second compound 0.1 µM, first compound 0.316 µM): 98.1%
viability, T/C (second compound 0.1 µM, first compound 1 µM): 91.2%
viability, T/C (second compound 0.1 µM, first compound 3.16 µM): 95%
viability, T/C (second compound 0.1 µM, first compound 10 µM): 88.2%
viability, T/C (second compound 0.316 µM, first compound 0.0316 µM): 92.4%
viability, T/C (second compound 0.316 µM, first compound 0.1 µM): 90.5%
viability, T/C (second compound 0.316 µM, first compound 0.316 µM): 92.8%
viability, T/C (second compound 0.316 µM, first compound 1 µM): 87.7%
viability, T/C (second compound 0.316 µM, first compound 3.16 µM): 91.6%
viability, T/C (second compound 0.316 µM, first compound 10 µM): 74.7%
viability, T/C (second compound 1 µM, first compound 0.0316 µM): 85.6%
viability, T/C (second compound 1 µM, first compound 0.1 µM): 79.3%
viability, T/C (second compound 1 µM, first compound 0.316 µM): 83.8%
viability, T/C (second compound 1 µM, first compound 1 µM): 84.2%
viability, T/C (second compound 1 µM, first compound 3.16 µM): 80.8%
viability, T/C (second compound 1 µM, first compound 10 µM): 72.2%
viability, T/C (second compound 3.16 µM, first compound 0.0316 µM): 85.9%
viability, T/C (second compound 3.16 µM, first compound 0.1 µM): 76.5%
viability, T/C (second compound 3.16 µM, first compound 0.316 µM): 78.6%
viability, T/C (second compound 3.16 µM, first compound 1 µM): 74.2%
viability, T/C (second compound 3.16 µM, first compound 3.16 µM): 78.4%
viability, T/C (second compound 3.16 µM, first compound 10 µM): 60.2%
viability, T/C (second compound 10 µM, first compound 0.0316 µM): 72.4%
viability, T/C (second compound 10 µM, first compound 0.1 µM): 75.2%
viability, T/C (second compound 10 µM, first compound 0.316 µM): 64.9%
viability, T/C (second compound 10 µM, first compound 1 µM): 71.1%
viability, T/C (second compound 10 µM, first compound 3.16 µM): 81.1%
viability, T/C (second compound 10 µM, first compound 10 µM): 51.8%
